Laboratory results taken from US10358434B2, “2-(3-pyridinyl)-1H-benzimidazole derivative compound and medicament containing same” (NIHON MEDI-PHYSICS CO., LTD., priority 2014, dated 2019).

Experiments:
[1] = Plasma stability evaluation (TLC analysis); assay type: in vitro ADME; conditions: 37° C., 60 minutes, TLC analysis
Summary of the method: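 Radiolabelled compounds were incubated in heparin-treated pooled normal human plasma at 37° C for 60 minutes. After methanol deproteinization and centrifugation, stability was assessed by TLC under the conditions used for each compound's synthesis.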

[2] = tested on: human adrenal gland section expressing aldosterone-producing adenoma; assay: In vitro autoradiography using human adrenal adenoma; assay type: binding; conditions: section of FIG. 17(b)
Summary of the method: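 Frozen 7-μm sections of human adrenal bearing aldosterone-producing adenoma were immersed 10 min in radioligand (5-33 kBq/mL) in PBS with 1% fatty-acid-free BSA, washed, then exposed to imaging plates for 16-20 h. Equal-area ROI PSL in adenoma (B2) versus normal cortex (B1) gave B2/B1, corrected for nuclide half-life, added activity and exposure time.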

[3] = In vivo kinetics experiment (radioactivity distribution); design: species or system Wistar male rat; conditions: rat i.v., mean ± SD
Summary of the method: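 Male Wistar rats (9 weeks) under isoflurane received approximately 1 to 3.7 MBq radiotracer in saline with 1 w/v % ascorbic acid by tail-vein injection. At 10, 30 and 60 min, rats were exsanguinated; blood, organs and remaining body weighed and counted, giving % ID/g and adrenal-to-tissue ratios.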

CC(C)n1c(-c2cncc(Cn3ccnc3)c2)nc2ccc([123I])cc21 [[^123I] 606, 2-[5-{(1H-imidazol-1-yl)methyl}pyridin-3-yl]-6-[^123I]iodo-1-isopropyl-1H-benzo[d]imidazole]
Radiochemical purity after incubation in human plasma [1]: 88%
B2/B1 accumulation ratio [2]: 0.87
B2 (PSL value, aldosterone-producing adenoma) ([2]; site 71b): 1655
B1 (PSL value, normal adrenal cortex) ([2]; site 72b): 1913
Adrenal gland/blood ratio of radioactivity accumulation ([3]; 10 min after administration): 85.09 ± 27.52
Adrenal gland/fat ratio of radioactivity accumulation ([3]; 10 min after administration): 100.88 ± 26.65
Adrenal gland/kidney ratio of radioactivity accumulation ([3]; 10 min after administration): 10.11 ± 2.69
Adrenal gland/liver ratio of radioactivity accumulation ([3]; 10 min after administration): 4.02 ± 1.20
Adrenal gland/muscle ratio of radioactivity accumulation ([3]; 10 min after administration): 57.42 ± 9.23
Adrenal gland/small intestine ratio of radioactivity accumulation ([3]; 10 min after administration): 9.70 ± 3.04
Radioactivity distribution Adrenal gland ([3]; 10 min after administration): 13.01 ± 3.75 % ID/g
Radioactivity distribution Bladder (including urine) ([3]; 10 min after administration): 0.27 ± 0.01 % ID/g
Radioactivity distribution Blood ([3]; 10 min after administration): 0.15 ± 0.01 % ID/g
Radioactivity distribution Fat ([3]; 10 min after administration): 0.13 ± 0.01 % ID/g
Radioactivity distribution Femur ([3]; 10 min after administration): 0.59 ± 0.02 % ID/g
Radioactivity distribution Heart ([3]; 10 min after administration): 0.56 ± 0.04 % ID/g
Radioactivity distribution Kidney ([3]; 10 min after administration): 1.29 ± 0.11 % ID/g
Radioactivity distribution Large intestine ([3]; 10 min after administration): 0.17 ± 0.00 % ID/g
Radioactivity distribution Liver ([3]; 10 min after administration): 3.24 ± 0.05 % ID/g
Radioactivity distribution Lung ([3]; 10 min after administration): 0.86 ± 0.07 % ID/g
Radioactivity distribution Muscle (lower limbs) ([3]; 10 min after administration): 0.22 ± 0.04 % ID/g
Radioactivity distribution Remaining whole body ([3]; 10 min after administration): 0.29 ± 0.02 % ID/g
Radioactivity distribution Small intestine ([3]; 10 min after administration): 1.35 ± 0.04 % ID/g
Radioactivity distribution Spleen ([3]; 10 min after administration): 4.55 ± 0.41 % ID/g
Radioactivity distribution Stomach ([3]; 10 min after administration): 0.75 ± 0.09 % ID/g
Radioactivity distribution Testis ([3]; 10 min after administration): 0.08 ± 0.00 % ID/g
Radioactivity distribution Whole brain ([3]; 10 min after administration): 0.03 ± 0.00 % ID/g
Adrenal gland/blood ratio of radioactivity accumulation ([3]; 30 min after administration): 151.28 ± 30.77
Adrenal gland/fat ratio of radioactivity accumulation ([3]; 30 min after administration): 172.63 ± 42.67
Adrenal gland/kidney ratio of radioactivity accumulation ([3]; 30 min after administration): 20.98 ± 3.60
Adrenal gland/liver ratio of radioactivity accumulation ([3]; 30 min after administration): 8.21 ± 1.88
Adrenal gland/muscle ratio of radioactivity accumulation ([3]; 30 min after administration): 130.86 ± 25.55
Adrenal gland/small intestine ratio of radioactivity accumulation ([3]; 30 min after administration): 7.82 ± 2.11
Radioactivity distribution Adrenal gland ([3]; 30 min after administration): 21.23 ± 4.43 % ID/g
Radioactivity distribution Bladder (including urine) ([3]; 30 min after administration): 1.17 ± 0.36 % ID/g
Radioactivity distribution Blood ([3]; 30 min after administration): 0.14 ± 0.00 % ID/g
Radioactivity distribution Fat ([3]; 30 min after administration): 0.12 ± 0.01 % ID/g
Radioactivity distribution Femur ([3]; 30 min after administration): 0.50 ± 0.01 % ID/g
Radioactivity distribution Heart ([3]; 30 min after administration): 0.44 ± 0.01 % ID/g
Radioactivity distribution Kidney ([3]; 30 min after administration): 1.01 ± 0.04 % ID/g
Radioactivity distribution Large intestine ([3]; 30 min after administration): 0.23 ± 0.01 % ID/g
Radioactivity distribution Liver ([3]; 30 min after administration): 2.59 ± 0.07 % ID/g
Radioactivity distribution Lung ([3]; 30 min after administration): 0.65 ± 0.03 % ID/g
Radioactivity distribution Muscle (lower limbs) ([3]; 30 min after administration): 0.16 ± 0.01 % ID/g
Radioactivity distribution Remaining whole body ([3]; 30 min after administration): 0.24 ± 0.01 % ID/g
Radioactivity distribution Small intestine ([3]; 30 min after administration): 2.75 ± 0.21 % ID/g
Radioactivity distribution Spleen ([3]; 30 min after administration): 3.80 ± 0.26 % ID/g
Radioactivity distribution Stomach ([3]; 30 min after administration): 1.66 ± 0.35 % ID/g
Radioactivity distribution Testis ([3]; 30 min after administration): 0.11 ± 0.01 % ID/g
Radioactivity distribution Whole brain ([3]; 30 min after administration): 0.03 ± 0.00 % ID/g
Adrenal gland/blood ratio of radioactivity accumulation ([3]; 60 min after administration): 161.94 ± 14.16
Adrenal gland/fat ratio of radioactivity accumulation ([3]; 60 min after administration): 229.99 ± 79.47
Adrenal gland/kidney ratio of radioactivity accumulation ([3]; 60 min after administration): 22.62 ± 2.40
Adrenal gland/liver ratio of radioactivity accumulation ([3]; 60 min after administration): 8.81 ± 1.68
Adrenal gland/muscle ratio of radioactivity accumulation ([3]; 60 min after administration): 168.08 ± 24.28
Adrenal gland/small intestine ratio of radioactivity accumulation ([3]; 60 min after administration): 5.20 ± 0.46
Radioactivity distribution Adrenal gland ([3]; 60 min after administration): 19.67 ± 3.42 % ID/g
Radioactivity distribution Bladder (including urine) ([3]; 60 min after administration): 2.06 ± 0.40 % ID/g
Radioactivity distribution Blood ([3]; 60 min after administration): 0.12 ± 0.01 % ID/g
Radioactivity distribution Fat ([3]; 60 min after administration): 0.09 ± 0.02 % ID/g
Radioactivity distribution Femur ([3]; 60 min after administration): 0.62 ± 0.04 % ID/g
Radioactivity distribution Heart ([3]; 60 min after administration): 0.40 ± 0.02 % ID/g
Radioactivity distribution Kidney ([3]; 60 min after administration): 0.87 ± 0.07 % ID/g
Radioactivity distribution Large intestine ([3]; 60 min after administration): 0.35 ± 0.06 % ID/g
Radioactivity distribution Liver ([3]; 60 min after administration): 2.24 ± 0.16 % ID/g
Radioactivity distribution Lung ([3]; 60 min after administration): 0.60 ± 0.03 % ID/g
Radioactivity distribution Muscle (lower limbs) ([3]; 60 min after administration): 0.12 ± 0.01 % ID/g
Radioactivity distribution Remaining whole body ([3]; 60 min after administration): 0.22 ± 0.01 % ID/g
Radioactivity distribution Small intestine ([3]; 60 min after administration): 3.77 ± 0.38 % ID/g
Radioactivity distribution Spleen ([3]; 60 min after administration): 3.05 ± 0.35 % ID/g
Radioactivity distribution Stomach ([3]; 60 min after administration): 1.90 ± 0.35 % ID/g
Radioactivity distribution Testis ([3]; 60 min after administration): 0.16 ± 0.03 % ID/g
Radioactivity distribution Whole brain ([3]; 60 min after administration): 0.03 ± 0.00 % ID/g
